Like-named read-outs stand apart in the source and are kept apart here.

Assay [1] deals with PC12 cells. Description: Glucose starvation. The following applies: MTT 24 hr. Type of assay: cell-based. As to the method: FIG. 5 illustrates pharmacological effects of Baicalein on cultured cells. (A) Trophic factor withdrawal. Primary cortical neurons are prepared from 18-day-old rat embryos, and cultured at low cell density 1×10^6/35 mm dish, in serum containing medium with Baicalein (10-10,000 nM), and viability assayed 2 days later using a live-dead assay. (B) Excitotoxicity assay was done with E14 mouse primary cortical neuron cultures. After 11 days of culture, cells were exposed to 10 μM glutamate for 10 min, followed by the addition of varying concentrations of Baicalein (0.2-5 μM). Cell viability was determined 24 hr later with a standard MTT assay. (C) PC12 cells were glucose-deprived then were incubates in the absence or presence of Baicalein. Cell viability was determined 24 hr later using the MTT assay. (D) RCG-5 nerve cells were treated with 30 μM iodoacetic acid for 2 hr in the presence or absence of 5-25 μM Baicalein. In some experiments, Baicalein was added 2 hr after the ischemic event. Cell survival (%) was measured after 24 hr by the MTT assay. Baicalein added before (□) or 2 hr after ([…]) ischemia. […] When these cells are starved for glucose, there is approximately 70% maximal survival in the presence of NGF. Baicalein promotes over 80% survival (FIG. 5C).

The subject of assay [2] is HT22 cells. Description: In vitro ischemia assay (HT22 cell IAA assay, MTT). Conditions: for percent protection from IAA-induced cell death at 0.1 µM: HT-22, compound 100 nM. Type of assay: cell-based, mouse. The method in brief: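 Mouse HT22 hippocampal cells in DMEM/7.5% DFCS exposed 2 hr to 20 μM iodoacetic acid with or without derivative, then 20 hr in IAA-free medium still containing derivative. Viability by MTT (2.5 μg/ml, 4 hr, 37 °C), absorbance at 570 nm.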

Assay [3] relates to primary mouse cortical neurons. As to the kind of experiment: Primary cortical cell glutamate excitotoxicity assay. Type of assay: cell-based. Conditions: 10 μM glutamate, compound 100 nM. As to the method: FIG. 5 illustrates pharmacological effects of Baicalein on cultured cells. (A) Trophic factor withdrawal. Primary cortical neurons are prepared from 18-day-old rat embryos, and cultured at low cell density 1×10^6/35 mm dish, in serum containing medium with Baicalein (10-10,000 nM), and viability assayed 2 days later using a live-dead assay. (B) Excitotoxicity assay was done with E14 mouse primary cortical neuron cultures. After 11 days of culture, cells were exposed to 10 μM glutamate for 10 min, followed by the addition of varying concentrations of Baicalein (0.2-5 μM). Cell viability was determined 24 hr later with a standard MTT assay. (C) PC12 cells were glucose-deprived then were incubates in the absence or presence of Baicalein. Cell viability was determined 24 hr later using the MTT assay. (D) RCG-5 nerve cells were treated with 30 μM iodoacetic acid for 2 hr in the presence or absence of 5-25 μM Baicalein. In some experiments, Baicalein was added 2 hr after the ischemic event. Cell survival (%) was measured after 24 hr by the MTT assay. Baicalein added before (□) or 2 hr after ([…]) ischemia.
Primary cultures of cortical neurons that die due to excitotoxicity were prepared as described previously. Briefly, BALB/c mouse embryo cortices were minced and treated with 0.1% trypsin for 20 min. After centrifugation, the cells are resuspended in 827 Neurobasal medium (Invitrogen) plus 10% fetal calf serum and are dissociated by repeated pipetting through a 1 mL blue Eppendorf pipette tip. Then the cells are plated at 1×10^5 cells per well in 96-well poly-L-lysine and laminin-coated microtiter plates (Becton Dickinson, Bedford, Mass., USA) in 827 Neurobasal plus 10% fetal calf serum and 20% glial growth-conditioned medium. Two days later the medium is aspirated and replaced by serum-free 827 Neurobasal medium plus 10 μg/mL cytosine arabinoside. The cultures are used without media change 11 days after plating and are essentially free of astrocytes. They are exposed to 10 μM glutamate followed by varying concentrations of the compounds. Cell viability is determined 24 h later using the fluorescent live/dead assay. Glial conditioned medium is prepared from confluent rat astrocyte cultures. The cells are washed twice with serum-free medium and incubated for 2 days in serum-free Neurobasal medium to produce the growth conditioned medium.
(1) ≧80% cell survival in mouse HT22 hippocampal cells in the presence of 20 μM iodoacetic acid (IAA) (in vitro ischemia model). See, Maher, et al., Brain Res. 2007, 1173:117-25. (2) ≧35% cell survival in primary mouse cortical neurons in the presence of 10 μM glutamate (in vitro excitotoxicity assay). See, Ishige, et al., Free Radic Biol Med, 2001, 30(4): p. 433-46.

For assay [4], the system named is PC12 cells. Description: PC12 cell differentiation (neurite outgrowth). Type of assay: cell-based. Conditions: N2 medium, derivative 1-10 μM, 24 hr, visual inspection. Put shortly: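 PC12 cells in N2 medium were exposed to derivatives (1-10 μM) for 24 hr, with Fisetin (10 μM) as positive control. Cells counted as positive if bearing ≥1 neurite longer than one cell body diameter; 100 cells scored in each of three fields per treatment.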

The nature of assay [5]: TEAC, ABTS decolorization assay. The following applies: relative to Trolox. Put shortly:
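Compound in ethanol added to persulfate-generated ABTS radical cation (OD ~0.7 at 734 nm); absorbance decrease followed at 734 nm for 4 min. TEAC is the slope of percent absorbance inhibition versus concentration divided by the corresponding Trolox slope.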

Assay [6] concerns HT22 cells. Description: Maintenance of total GSH in the presence of glutamate. Type of assay: cell-based, mouse. Conditions: derivative 1-10 μM, 5 mM glutamate, 24 hr. The method in brief:
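HT22 cells treated 24 hr with each derivative at 1-10 μM plus 5 mM glutamate, then extracts analysed for total GSH by chemical assay. Fisetin (10 μM) served as positive control.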

Where [7] appears, read: HT22 cells, 20 μM IAA, read-out: HT22 Cell IAA assay EC50.
[8] abbreviates: Mus musculus, HT-22, HT22 cells, 20 μM IAA for 2 hr, viability after 24 hr by MTT, read-out: EC50 in vitro ischemia.

Consider “NGF: NGF, comparator in the PC12 glucose starvation assay”, for which the “survival of glucose-starved cells” value in assay [1] is “approximately 70%”.

In general, EC50 refers to the concentration that produces a half-maximal response. In the case of `Cc1ccc2oc(-c3ccc(O)c(O)c3)c(O)c(=O)c2c1` [PM-010, 2-(3,4-dihydroxyphenyl)-3-hydroxy-6-methyl-4H-chromen-4-one], the EC50 in assay [2] (setting [7]) was determined as 46 nM. Moreover, the percent protection from IAA-induced cell death at 0.1 µM in assay [2] (Mus musculus, 20 μM IAA) worked out at 89%. Further, the “Primary Cortical Cell assay-Glutamate (% protection @ 100 nM)” value in assay [3] came to 65%.

As for `CCCc1ccc2oc(-c3ccc(O)c(O)c3)c(O)c(=O)c2c1` [PM-012, 2-(3,4-dihydroxyphenyl)-3-hydroxy-6-propyl-4H-chromen-4-one], the EC50 in assay [2] (setting [7]) was found to be 61 nM; in assay [2] (Mus musculus, HT-22, HT22 cells, 20 μM IAA, read-out: HT22 Cell IAA assay EC50), 38 nM. Besides, in assay [2] (Mus musculus, 20 μM IAA), the percent protection from IAA-induced cell death at 0.1 µM was 80%. Further, the “Primary Cortical Cell assay-Glutamate (% protection @ 100 nM)” value in assay [3] was 82%.

For the compound `CCc1ccc2oc(-c3ccc(O)c(O)c3)c(O)c(=O)c2c1` [PM-013, 2-(3,4-dihydroxyphenyl)-6-ethyl-3-hydroxy-4H-chromen-4-one], in assay [2] (setting [7]), the EC50 is 61 nM. The percent protection from IAA-induced cell death at 0.1 µM in assay [2] (Mus musculus, 20 μM IAA) was found to be 81%. Also, the “Primary Cortical Cell assay-Glutamate (% protection @ 100 nM)” value in assay [3] was found to be 51%.

With `COc1cc(-c2ccc([N+](=O)[O-])c(O)c2)nc2ccccc12` [CMS-111, 4-methoxy-2-(3-hydroxy-4-nitrophenyl)quinoline], in assay [4], the “PC12 diff'n (ability to induce PC12 cell differentiation)” value was “no”. Besides, the TEAC in assay [5] is reported as 0.18. Also, the “GSH (ability to maintain GSH)” value in assay [6] is reported as “no”. Moreover, the “EC50 in vitro ischemia (μM)” value in assay [2] (HT22 cells, 20 μM IAA for 2 hr, viability after 24 hr by MTT) is given as “no”.

Regarding `O=c1cc(-c2cc(O)c(O)c(O)c2)oc2ccccc12` [PM-008, 3′,4′,5′-trihydroxyflavone], the EC50 in assay [2] (setting [7]) was found to be 42 nM. For the same compound, in assay [2] (Mus musculus, 20 μM IAA), the percent protection from IAA-induced cell death at 0.1 µM came out at 88%. The “Primary Cortical Cell assay-Glutamate (% protection @ 100 nM)” value in assay [3] was found to be 100%.

`Cc1cc2oc(-c3ccc(O)c(O)c3)cc(=O)c2cc1C` [CMS-028, 2-(3,4-dihydroxyphenyl)-6,7-dimethyl-4H-chromen-4-one]: in assay [4], the “PC12 diff'n (ability to induce PC12 cell differentiation)” value is recorded as “no”. The same compound had a TEAC in assay [5] of 0.27. For the same compound, the “GSH (ability to maintain GSH)” value in assay [6] was “no”. In addition, the EC50 in assay [2] (setting [8]) was determined as 250 nM. Further, the “fold enhancement of neuroprotective activity relative to CMS-027” value in assay [2] (in vitro ischemia, HT22/IAA) is 2 fold.

Consider `Cc1cc2oc(-c3ccc(O)cc3O)cc(=O)c2cc1C` [CMS-094, 2-(2,4-dihydroxyphenyl)-6,7-dimethyl-4H-chromen-4-one], for which the “PC12 diff'n (ability to induce PC12 cell differentiation)” value in assay [4] was “no”. Besides, in assay [5], the TEAC is given as 0.15. Also, the “GSH (ability to maintain GSH)” value in assay [6] was “no”. The EC50 in assay [2] (setting [8]) was more than 500 nM.

In the case of `COc1cc(-c2oc3c(ccc4ccccc43)c(=O)c2O)ccc1O` [CMS-070, 3-hydroxy-2-(4-hydroxy-3-methoxyphenyl)-4H-benzo[h]chromen-4-one], the “PC12 diff'n (ability to induce PC12 cell differentiation)” value in assay [4] is reported as “yes”. In assay [5], the TEAC was determined as 0.63. The “GSH (ability to maintain GSH)” value in assay [6] is “no”. Besides, the EC50 in assay [2] (setting [8]) is more than 500 nM.

The record behind these values is US20140186329A1, “POLYPHENOL ANALOGS TO TREAT ISCHEMIA” (priority 2011, published 2014).
